Experimental findings from US20220274938A1, “5-[(1S)-1-(4-BROMOPHENOXY)ETHYL]-2H-TETRAZOLE DERIVATIVES AND RELATED COMPOUNDS AS CLC-1 ION CHANNEL INHIBITORS FOR TREATING NEUROMUSCULAR DISORDERS” (NMD PHARMA A/S, priority 2019, published 2022) are described below.

One may read the EC50 as the concentration needed to bring the measured effect to its halfway point.

One assay has as its target T1, CIC-1 ion channel (Rattus norvegicus, UniProt P35524).
T1 construct: CIC-1 channels in native tissue of rat skeletal muscle fibres; from tissue; host or cells: whole soleus muscle of 12-14 week old Wistar rats
T1 sequence (P35524 1-994): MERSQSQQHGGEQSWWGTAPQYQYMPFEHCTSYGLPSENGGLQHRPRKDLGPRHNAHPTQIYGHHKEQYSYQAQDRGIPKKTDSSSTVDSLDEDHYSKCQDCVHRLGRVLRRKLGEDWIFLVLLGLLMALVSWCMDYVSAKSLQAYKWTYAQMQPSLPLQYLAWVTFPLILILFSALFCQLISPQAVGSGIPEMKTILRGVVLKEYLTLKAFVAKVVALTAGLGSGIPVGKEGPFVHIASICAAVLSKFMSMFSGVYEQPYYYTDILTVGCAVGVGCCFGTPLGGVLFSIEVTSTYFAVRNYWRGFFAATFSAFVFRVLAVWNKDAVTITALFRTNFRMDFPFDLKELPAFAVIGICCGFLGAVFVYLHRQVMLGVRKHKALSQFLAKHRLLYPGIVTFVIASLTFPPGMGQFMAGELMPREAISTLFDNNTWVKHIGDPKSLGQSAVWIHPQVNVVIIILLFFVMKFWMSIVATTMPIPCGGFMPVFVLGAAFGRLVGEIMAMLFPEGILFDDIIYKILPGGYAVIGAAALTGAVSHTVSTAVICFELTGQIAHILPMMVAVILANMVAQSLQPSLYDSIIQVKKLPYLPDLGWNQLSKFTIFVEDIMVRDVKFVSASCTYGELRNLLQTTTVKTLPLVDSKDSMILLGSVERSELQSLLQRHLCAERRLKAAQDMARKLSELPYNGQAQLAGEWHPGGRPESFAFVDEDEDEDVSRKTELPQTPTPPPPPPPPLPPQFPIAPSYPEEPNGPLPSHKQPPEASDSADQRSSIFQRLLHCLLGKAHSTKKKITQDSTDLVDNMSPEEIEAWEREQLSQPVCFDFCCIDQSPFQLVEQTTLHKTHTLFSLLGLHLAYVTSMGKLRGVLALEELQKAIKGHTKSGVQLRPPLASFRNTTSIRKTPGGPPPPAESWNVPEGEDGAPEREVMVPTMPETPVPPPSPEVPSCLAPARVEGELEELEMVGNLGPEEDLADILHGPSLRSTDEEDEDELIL
Briefly: Electrophysiological measurement (Gm, three micro-electrodes) of compound inhibition of CIC-1 in rat soleus muscle fibres. To be noted: approx. 30° C., four increasing compound concentrations, read-out: EC50 (inhibition of CIC-1 ion channel, reduction of Gm). Format: cell-based. The text has this:
FIG. 1. […] Please note that the drawing illustrates only the impaled fibre although it is part of an intact muscle that contains many such fibres. All electrodes recorded the membrane potential of the fibre and the two peripheral electrodes were used to inject current (−30 nA, 50 ms). The electrodes were inserted with known inter-electrode distances (X1, X2 and X3). After insertion, current was passed first via the V1 electrode and then via the V3 electrode. The resulting deflections in the membrane voltage were measured by the other electrodes. The steady state deflections in membrane potential were measured and divided by the magnitude of the injected current (−30 nA) to obtain transfer resistances. These were next plotted against inter-electrode distances, and fitted to an exponential function (Panel B), from which Gm could be calculated using linear cable theory. The approach described in panel A and B, was repeated for several muscle fibres in the muscle during exposure at increasing concentrations of compound E-8, with approx. 10 fibres at each concentration. Average Gm at each concentration was plotted as a function of compound concentration in panel C, and fitted to a 4-parameter sigmoidal function from which the EC50 value for the compound was obtained (dashed line)
Apparent CIC-1 affinity was reported by the concentration of compound at which 50% of the compound's full inhibition of CIC-1 was observed (EC50).
CIC-1 Cl^− ion channels generate around 80% of the total membrane conductance (Gm) in resting skeletal muscle fibres of most animals including rat and human (Bretag, A H. Muscle chloride channels. Physiological Reviews, 1987, 67, 618-724). […] CIC-1 inhibition would in such recordings be reflected by a reduction of Gm.
Experimentally, Gm was measured in individual fibres of whole rat soleus muscles using a three micro-electrodes technique described in this example and in full detail elsewhere (Riisager et al., Determination of cable parameters in skeletal muscle fibres during repetitive firing of action potentials. Journal of Physiology, 2014, 592, 4417-4429). Briefly, intact rat soleus muscles were dissected out from 12-14 week old Wistar rats and placed in an experimental chamber that was perfused with a standard Krebs Ringer solution containing 122 mM NaCl, 25 mM NaHCO3, 2.8 mM KCl, 1.2 mM KH2PO4, 1.2 mM MgSO4, 1.3 mM CaCl2, 5.0 mM D-glucose. During experiments, the solution was kept at approx. 30° C. and continuously equilibrated with a mixture of 95% O2 and 5% CO2, pH˜7.4. The experimental chamber was placed in Nikon upright microscope that was used to visualize individual muscle fibres and the three electrodes (glass pipettes filled with 2 M potassium citrate). For Gm measurements, the electrodes were inserted into the same fibre with known inter-electrode distances of 0.35-0.5 mm (V1-V2, X1) and 1.1-1.5 mm (V1-V3, X3) (FIG. 1A). The membrane potential of the impaled muscle fibre was recorded by all electrodes. Two of the electrodes were furthermore used to inject 50 ms current pulses of −30 nA. […] The steady state voltage deflection at each distance was divided by the magnitude of current injected (−30 nA) and the resulting transfer resistances were plotted against inter-electrode distance and the data was fitted to a mono-exponential function from which Gm could be calculated using linear cable theory (FIG. 1B).
To establish a dose response relationship, Gm was first determined in 10 muscle fibres in the absence of compound and then at four increasing compound concentrations with Gm determinations in 5-10 fibres at each concentration. The average Gm values at each concentration were plotted against compound concentration and the data was fitted to sigmoidal function to obtain an EC50 value (FIG. 1C).

A further assay has as its target T2, human CIC-1 channels (Homo sapiens, UniProt P35523).
T2 construct: host or cells: CHO (Chinese hamster ovary) cells, cryopreserved, used directly after thawing
Briefly: Automated patch-clamp on the human isoform of CIC-1 expressed in CHO cells. As to conditions: compound added to the intracellular solution vs control cell patches, positive shift reflects inhibition. Format: cell-based. On the procedure:
The investigatory goal of these experiments was to evaluate how compounds affect the open probability and current amplitude of human CIC-1 channels expressed in CHO cells. Experiments were performed using an automated patch clamp system that allowed high throughput testing of whole cell patches together with both intracellular and extracellular addition of compound.
Automated whole cell patch clamp experiments were performed with the Qpatch 16 system (Sophion Bioscience, Ballerup, Denmark) at room temperature. Data acquisition and analysis were performed in the Qassay software (ver. 5.6, Odense).
To obtain tail currents, the membrane potential was stepped to −100 mV after each test voltage for 300 ms and then relaxed to −30 mV for 2 sec between sweeps (FIG. 3). I/V relationships for whole cell instant and steady state current amplitudes were obtained by plotting average current densities at the beginning and at the end of the 300 ms step against the membrane potential (FIG. 4).
In order to determine the relative overall open probability (Po), the instantaneous tail currents were normalized to the maximal tail current obtained following the most positive voltage step and plotted against the test voltage. Plots of normalized tail currents from each whole cell patch were then fitted to a Boltzmann function allowing determination of half activation voltages (V1/2, FIG. 5).
Osmolality adjusted to ˜320 using sucrose. Intracellular solutions contained: 80 mM CsF, 60 mM CsCl, 5/1 mM KOH/EGTA, 10 mM HEPES, 10 mM NaCl, pH adjusted to 7.2 with NaOH (2 M). Osmolality adjusted to ˜320 mOsm using sucrose.
Cells used in patch clamp experiments were Chinese hamster ovary cells (CHO) constitutively expressing human CIC-1 channels. The amino acid sequence encoded by the cDNA used to create this cell line was identical to the translated sequence for GenBank accession number NM_000083.2. Cells were produced by Charles River (Catalogue CT6175, Cleveland Ohio, USA) in a cryopreserved format. Experiments were performed on the cells directly after thawing (3×10^6 cells used in each experiment).
To evaluate the compound effect on CIC-1, when applied directly to the intracellular side of the cell membrane, the half activation voltage, V1/2, was determined from whole cell patches with compound added to the intracellular solution and then compared to V1/2 determined from control cell patches with only vehicle added to the intracellular solution. Additionally, the effect of extracellular added compound was evaluated by determine V1/2 and steady state current amplitudes before and after exchanging the extracellular solution to contain compound.
The difference in half activation voltage of CIC-1 channels, ΔV1/2, was determined as the difference between the cell patches treated intracellularly with compound and control cells patches and is reported in Table 4 below. A positive shift in ΔV1/2 is reflecting CIC-1 channel inhibition by the tested compound. P-values of <0.05 is considered significant.

T2 sequence (P35523 whole entry): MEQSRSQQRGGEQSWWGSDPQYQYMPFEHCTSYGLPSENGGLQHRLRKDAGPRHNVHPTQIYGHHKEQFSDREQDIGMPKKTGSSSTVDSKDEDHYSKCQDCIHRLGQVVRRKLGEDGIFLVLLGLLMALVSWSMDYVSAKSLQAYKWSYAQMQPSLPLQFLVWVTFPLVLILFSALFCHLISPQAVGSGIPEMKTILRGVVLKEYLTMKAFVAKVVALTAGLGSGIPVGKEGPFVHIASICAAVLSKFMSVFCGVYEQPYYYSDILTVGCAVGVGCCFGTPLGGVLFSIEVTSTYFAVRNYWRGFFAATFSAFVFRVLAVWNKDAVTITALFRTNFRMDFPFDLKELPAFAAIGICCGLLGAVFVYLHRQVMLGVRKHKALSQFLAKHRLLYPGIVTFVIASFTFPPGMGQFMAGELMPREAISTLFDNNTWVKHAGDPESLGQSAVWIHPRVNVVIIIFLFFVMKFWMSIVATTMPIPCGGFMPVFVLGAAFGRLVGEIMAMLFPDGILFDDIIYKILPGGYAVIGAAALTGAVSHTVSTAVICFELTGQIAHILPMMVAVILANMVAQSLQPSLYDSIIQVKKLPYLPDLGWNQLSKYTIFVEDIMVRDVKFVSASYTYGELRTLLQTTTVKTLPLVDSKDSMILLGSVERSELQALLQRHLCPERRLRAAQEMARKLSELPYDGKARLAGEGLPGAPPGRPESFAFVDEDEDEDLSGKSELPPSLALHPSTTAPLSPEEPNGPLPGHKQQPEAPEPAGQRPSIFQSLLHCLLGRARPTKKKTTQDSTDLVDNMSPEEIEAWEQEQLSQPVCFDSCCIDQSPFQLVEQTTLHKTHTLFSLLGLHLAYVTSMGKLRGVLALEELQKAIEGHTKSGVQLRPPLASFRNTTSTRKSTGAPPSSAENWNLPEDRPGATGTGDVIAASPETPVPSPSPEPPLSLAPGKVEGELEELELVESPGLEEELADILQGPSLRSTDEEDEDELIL

Turning to `CC(C)[C@H](Oc1ccc(Br)cc1)C(=O)NC#N` [Compound B-5, (2S)-2-(4-bromophenoxy)-N-cyano-3-methylbutanamide], the EC50 at CIC-1 ion channel was found to be 19.6 µM. The “ΔV1/2 (difference in half activation voltage of CIC-1 channels)” value on human CIC-1 channels is recorded as 26.6 mV.
